# Measured values published in patent EP1211505A1, “METHOD FOR MEASURING SUBSTANCE AND M[…] TO BE USED IN THE METHOD” (Asahi Kasei Kabushiki Kaisha, priority 1999, dated 2001).
# Like-named read-outs stand apart in the source and are kept apart here.
# Key:
# [1] = in the form of a sodium salt, cited from earlier work
# [2] = Solubility of BCIP / BCI2; type: physicochemical; conditions: buffer 1: 1.01 M 2-ethylaminoethanol-HCl/0.505 mM MgCl2 (pH 9.87)
# Protocol: The solubility of BCIP in the buffer 1 is about 70 mM. In order to obtain the optimum concentration of BCIP, first an ALP measurement reagent was prepared by dissolving BCIP in the buffer 1 to give a final concentration of 70 mM, and then the prepared reagent was diluted with the buffer 1 step by step to prepare ALP measurement reagents having BCIP final concentrations of 70 mM, 35 mM, 15 mM, 10 mM, 6.25 mM, 5 mM, 2.5 mM and 1.25 mm, respectively.
smiles,measurement,setting,value
"O=P(O)(O)Oc1c[nH]c2ccc(Br)c(Cl)c12 [BCIP, 5-bromo-4-chloro-3-indoxyl phosphate]",solubility of BCIP in pure water,[1]; same value expressed in mM,54 mM
same,solubility of BCIP in pure water,[1],20 mg/mL
same,solubility of BCIP in the buffer 1,[2],about 70 mM
